What was measured:
Experiment in all cases: relative viability (nuclei count vs DMSO), 5 days (fraction); higher = more cells survive
A-427 = test system: A-427
Procedure, shortened: (§1)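 A single step with final 0.05% Triton X-100, 1% formaldehyde and 1 ug/ml Hoechst fixed the cells and stained nuclei 5 days after treatment. Lung cancer cell lines in 1536-well plates had been treated by pin tool the day after seeding with one drug alone or a fixed anchor-drug dose plus five library-drug doses (not always all listed) in √10 steps, and nuclei were counted on 4× images. Relative viability is the ratio of nuclei in treated wells to nuclei in vehicle wells, taken as the median of duplicate plates.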

NCI-H2170 = test system: NCI-H2170
Procedure, shortened: as §1

HARA = test system: HARA
Procedure, shortened: as §1

NCI-H322M = test system: NCI-H322M
Procedure, shortened: as §1

LK-2 = test system: LK-2
Procedure, shortened: as §1

SK-MES-1 = test system: SK-MES-1
Procedure, shortened: as §1

ABC-1 = test system: ABC-1
Procedure, shortened: as §1

PC-3 [JPC-3] = test system: PC-3 [JPC-3]
Procedure, shortened: as §1

LXF-289 = test system: LXF-289
Procedure, shortened: as §1

NCI-H727 = test system: NCI-H727
Procedure, shortened: as §1

SW 1573 = test system: SW 1573
Procedure, shortened: as §1

EMC-BAC-2 = test system: EMC-BAC-2
Procedure, shortened: as §1

HOP-62 = test system: HOP-62
Procedure, shortened: as §1

NCI-H1944 = test system: NCI-H1944
Procedure, shortened: as §1

NCI-H1792 = test system: NCI-H1792
Procedure, shortened: as §1

NCI-H596 = test system: NCI-H596
Procedure, shortened: as §1

NCI-H522 = test system: NCI-H522
Procedure, shortened: as §1

NCI-H2228 = test system: NCI-H2228
Procedure, shortened: as §1

NCI-H1993 = test system: NCI-H1993
Procedure, shortened: as §1

SW 900 = test system: SW 900
Procedure, shortened: as §1

NCI-H3122 = test system: NCI-H3122
Procedure, shortened: as §1

NCI-H2009 = test system: NCI-H2009
Procedure, shortened: as §1

CC(=O)O[C@@]12CO[C@@H]1C[C@H](O)[C@@]1(C)C(=O)[C@H](O)C3=C(C)[C@@H](OC(=O)[C@H](O)[C@@H](NC(=O)OC(C)(C)C)c4ccccc4)C[C@@](O)([C@@H](OC(=O)c4ccccc4)[C@H]21)C3(C)C [Docetaxel] + Cc1nc(Nc2ncc(C(=O)Nc3c(C)cccc3Cl)s2)cc(N2CCN(CCO)CC2)n1 [Dasatinib] (partner 0.075 µM)
relative viability (A-427; first compound 0.0002 µM): 0.721 | relative viability (A-427; first compound 0.000632 µM): 0.642 | relative viability (A-427; first compound 0.002 µM): 0.445 | relative viability (A-427; first compound 0.006325 µM): 0.154 | relative viability (A-427; first compound 0.02 µM): 0.141 | relative viability (NCI-H2170; first compound 0.0002 µM): 0.6 | relative viability (NCI-H2170; first compound 0.000632 µM): 0.574 | relative viability (NCI-H2170; first compound 0.002 µM): 0.428 | relative viability (NCI-H2170; first compound 0.006325 µM): 0.141 | relative viability (NCI-H2170; first compound 0.02 µM): 0.14 | relative viability (HARA; first compound 0.0002 µM): 0.261 | relative viability (HARA; first compound 0.000632 µM): 0.173 | relative viability (HARA; first compound 0.002 µM): 0.134 | relative viability (HARA; first compound 0.006325 µM): 0.0839 | relative viability (HARA; first compound 0.02 µM): 0.0451 | relative viability (NCI-H322M; first compound 0.0002 µM): 0.242 | relative viability (NCI-H322M; first compound 0.000632 µM): 0.251 | relative viability (NCI-H322M; first compound 0.002 µM): 0.372 | relative viability (NCI-H322M; first compound 0.006325 µM): 0.406 | relative viability (NCI-H322M; first compound 0.02 µM): 0.346 | relative viability (LK-2; first compound 0.0002 µM): 0.212 | relative viability (LK-2; first compound 0.000632 µM): 0.268 | relative viability (LK-2; first compound 0.002 µM): 0.181 | relative viability (LK-2; first compound 0.006325 µM): 0.21 | relative viability (LK-2; first compound 0.02 µM): 0.113 | relative viability (SK-MES-1; first compound 0.0002 µM): 0.326 | relative viability (SK-MES-1; first compound 0.000632 µM): 0.316 | relative viability (SK-MES-1; first compound 0.002 µM): 0.19 | relative viability (SK-MES-1; first compound 0.006325 µM): 0.167 | relative viability (SK-MES-1; first compound 0.02 µM): 0.072 | relative viability (ABC-1; first compound 0.0002 µM): 0.533 | relative viability (ABC-1; first compound 0.000632 µM): 0.434 | relative viability (ABC-1; first compound 0.002 µM): 0.388 | relative viability (ABC-1; first compound 0.006325 µM): 0.36 | relative viability (ABC-1; first compound 0.02 µM): 0.252 | relative viability (PC-3 [JPC-3]; first compound 0.0002 µM): 0.94 | relative viability (PC-3 [JPC-3]; first compound 0.000632 µM): 0.954 | relative viability (PC-3 [JPC-3]; first compound 0.002 µM): 0.762 | relative viability (PC-3 [JPC-3]; first compound 0.006325 µM): 0.339 | relative viability (PC-3 [JPC-3]; first compound 0.02 µM): 0.16 | relative viability (LXF-289; first compound 0.0002 µM): 0.181 | relative viability (LXF-289; first compound 0.000632 µM): 0.154 | relative viability (LXF-289; first compound 0.002 µM): 0.0677 | relative viability (LXF-289; first compound 0.006325 µM): 0.0536 | relative viability (LXF-289; first compound 0.02 µM): 0.0314 | relative viability (NCI-H727; first compound 0.0002 µM): 0.367 | relative viability (NCI-H727; first compound 0.000632 µM): 0.326 | relative viability (NCI-H727; first compound 0.002 µM): 0.272 | relative viability (NCI-H727; first compound 0.006325 µM): 0.395 | relative viability (NCI-H727; first compound 0.02 µM): 0.276 | relative viability (SW 1573; first compound 0.0002 µM): 0.307 | relative viability (SW 1573; first compound 0.000632 µM): 0.19 | relative viability (SW 1573; first compound 0.002 µM): 0.122 | relative viability (SW 1573; first compound 0.02 µM): 0.0658 | relative viability (EMC-BAC-2; first compound 0.0002 µM): 0.298 | relative viability (EMC-BAC-2; first compound 0.000632 µM): 0.232 | relative viability (EMC-BAC-2; first compound 0.002 µM): 0.192 | relative viability (EMC-BAC-2; first compound 0.006325 µM): 0.228 | relative viability (EMC-BAC-2; first compound 0.02 µM): 0.132 | relative viability (HOP-62; first compound 0.0002 µM): 0.56 | relative viability (HOP-62; first compound 0.000632 µM): 0.58 | relative viability (HOP-62; first compound 0.002 µM): 0.309 | relative viability (HOP-62; first compound 0.02 µM): 0.155 | relative viability (NCI-H1944; first compound 0.0002 µM): 0.216 | relative viability (NCI-H1944; first compound 0.000632 µM): 0.228 | relative viability (NCI-H1944; first compound 0.002 µM): 0.204 | relative viability (NCI-H1944; first compound 0.006325 µM): 0.178 | relative viability (NCI-H1944; first compound 0.02 µM): 0.105 | relative viability (NCI-H1792; first compound 0.0002 µM): 0.796 | relative viability (NCI-H1792; first compound 0.000632 µM): 0.707 | relative viability (NCI-H1792; first compound 0.002 µM): 0.648 | relative viability (NCI-H1792; first compound 0.006325 µM): 0.482 | relative viability (NCI-H1792; first compound 0.02 µM): 0.22 | relative viability (NCI-H596; first compound 0.0002 µM): 0.551 | relative viability (NCI-H596; first compound 0.000632 µM): 0.6 | relative viability (NCI-H596; first compound 0.002 µM): 0.543 | relative viability (NCI-H596; first compound 0.006325 µM): 0.397 | relative viability (NCI-H596; first compound 0.02 µM): 0.222 | relative viability (NCI-H522; first compound 0.0002 µM): 0.712 | relative viability (NCI-H522; first compound 0.000632 µM): 0.866 | relative viability (NCI-H522; first compound 0.002 µM): 0.649 | relative viability (NCI-H522; first compound 0.006325 µM): 0.672 | relative viability (NCI-H522; first compound 0.02 µM): 0.49 | relative viability (NCI-H2228; first compound 0.0002 µM): 0.429 | relative viability (NCI-H2228; first compound 0.000632 µM): 0.151 | relative viability (NCI-H2228; first compound 0.002 µM): 0.12 | relative viability (NCI-H2228; first compound 0.006325 µM): 0.146 | relative viability (NCI-H2228; first compound 0.02 µM): 0.0836 | relative viability (NCI-H1993; first compound 0.0002 µM): 0.569 | relative viability (NCI-H1993; first compound 0.000632 µM): 0.612 | relative viability (NCI-H1993; first compound 0.002 µM): 0.589 | relative viability (NCI-H1993; first compound 0.006325 µM): 0.638 | relative viability (NCI-H1993; first compound 0.02 µM): 0.465 | relative viability (SW 900; first compound 0.0002 µM): 0.612 | relative viability (SW 900; first compound 0.000632 µM): 0.218 | relative viability (SW 900; first compound 0.002 µM): 0.171 | relative viability (SW 900; first compound 0.006325 µM): 0.221 | relative viability (SW 900; first compound 0.02 µM): 0.127 | relative viability (NCI-H3122; first compound 0.0002 µM): 0.822 | relative viability (NCI-H3122; first compound 0.000632 µM): 0.694 | relative viability (NCI-H3122; first compound 0.002 µM): 0.508 | relative viability (NCI-H3122; first compound 0.006325 µM): 0.102 | relative viability (NCI-H3122; first compound 0.02 µM): 0.078 | relative viability (NCI-H2009; first compound 0.0002 µM): 0.261 | relative viability (NCI-H2009; first compound 0.000632 µM): 0.299 | relative viability (NCI-H2009; first compound 0.002 µM): 0.273 | relative viability (NCI-H2009; first compound 0.006325 µM): 0.204 | relative viability (NCI-H2009; first compound 0.02 µM): 0.121

Reference: the supplement of paper PMC10307832
